Assays:
Test in all cases: Test C postemergence
barnyardgrass = type: in vivo, Echinochloa crus-galli
How it was run: (§1)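 Seeds sown in loam–sand blend and treated preemergence with test chemicals in non-phytotoxic solvent with surfactant; postemergence plants in peat-based medium, treated at 2–18 cm (1- to 4-leaf stage). Greenhouse 13 to 15 days, then visual rating versus controls, 0 (no effect) to 100 (complete control).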

ryegrass, Italian = type: in vivo, Lolium multiflorum
How it was run: as §1

wheat = type: in vivo, Triticum aestivum
How it was run: as §1

oilseed rape = type: in vivo, Brassica napus
How it was run: as §1

soybean = type: in vivo, Glycine max
How it was run: as §1

waterhemp = type: in vivo, Amaranthus rudis
How it was run: as §1

chickweed = type: in vivo, Stellaria media
How it was run: as §1

pigweed = type: in vivo, Amaranthus retroflexus
How it was run: as §1

ragweed = type: in vivo, Ambrosia elation
How it was run: as §1

foxtail, giant = type: in vivo, Setaria faberii
How it was run: as §1

johnsongrass = type: in vivo, Sorghum halepense
How it was run: as §1

morningglory = type: in vivo, Ipomoea coccinea
How it was run: as §1

blackgrass = type: in vivo, Alopecurus myosuroides
How it was run: as §1

kochia = type: in vivo, Kochia scoparia
How it was run: as §1

oat, wild = type: in vivo, Avena fatua
How it was run: as §1

nutsedge, yellow = type: in vivo, Cyperus esculentus
How it was run: as §1

lambsquarters = type: in vivo, Chenopodium album
How it was run: as §1

[1] = Postemergence, 31 g ai/ha, visually evaluated after 13 to 15 days
[2] = postemergence, 62 g ai/ha, scale 0 to 100
[3] = postemergence, 250 g ai/ha, scale 0 to 100 (0 no effect, 100 complete control)
[4] = postemergence, 125 g ai/ha, scale 0 to 100, 0 no effect, 100 complete control

CCCNC(=O)c1cc(CC)n(Cc2ccnc(OC(F)F)c2)n1 [Compound 132]
Plant response rating (scale of 0 to 100 where 0 is no effect and 100 is complete control), Barnyardgrass (barnyardgrass; [1]): 5 | Barnyardgrass plant response rating (barnyardgrass; [2]): 5 | Plant response rating, Barnyardgrass (barnyardgrass; [3]): 50 | Plant response rating, Barnyardgrass (barnyardgrass; [4]): 10 | Plant response rating (scale of 0 to 100 where 0 is no effect and 100 is complete control), Ryegrass, Italian (ryegrass, Italian; [1]): 10 | Ryegrass, Italian plant response rating (ryegrass, Italian; [2]): 10 | Plant response rating, Ryegrass, Italian (ryegrass, Italian; [3]): 10 | Plant response rating, Ryegrass, Italian (ryegrass, Italian; [4]): 10 | Plant response rating (scale of 0 to 100 where 0 is no effect and 100 is complete control), Wheat (wheat; [1]): 5 | Wheat plant response rating (wheat; [2]): 10 | Plant response rating, Wheat (wheat; [3]): 15 | Plant response rating, Wheat (wheat; [4]): 10 | Plant response rating (scale of 0 to 100 where 0 is no effect and 100 is complete control), Oilseed Rape (oilseed rape; [1]): 25 | Oilseed Rape plant response rating (oilseed rape; [2]): 55 | Plant response rating, Oilseed Rape (oilseed rape; [3]): 65 | Plant response rating, Oilseed Rape (oilseed rape; [4]): 65 | Plant response rating (scale of 0 to 100 where 0 is no effect and 100 is complete control), Soybean (soybean; [1]): 65 | Soybean plant response rating (soybean; [2]): 45 | Plant response rating, Soybean (soybean; [3]): 98 | Plant response rating, Soybean (soybean; [4]): 95 | Plant response rating (scale of 0 to 100 where 0 is no effect and 100 is complete control), Waterhemp (waterhemp; [1]): 35 | Waterhemp plant response rating (waterhemp; [2]): 55 | Plant response rating, Waterhemp (waterhemp; [3]): 80 | Plant response rating, Waterhemp (waterhemp; [4]): 65 | Plant response rating (scale of 0 to 100 where 0 is no effect and 100 is complete control), Chickweed (chickweed; [1]): 75 | Chickweed plant response rating (chickweed; [2]): 70 | Plant response rating, Chickweed (chickweed; [3]): 85 | Plant response rating, Chickweed (chickweed; [4]): 75 | Plant response rating (scale of 0 to 100 where 0 is no effect and 100 is complete control), Pigweed (pigweed; [1]): 10 | Pigweed plant response rating (pigweed; [2]): 30 | Plant response rating, Pigweed (pigweed; [3]): 60 | Plant response rating, Pigweed (pigweed; [4]): 35 | Plant response rating (scale of 0 to 100 where 0 is no effect and 100 is complete control), Ragweed (ragweed; [1]): 10 | Ragweed plant response rating (ragweed; [2]): 10 | Plant response rating, Ragweed (ragweed; [3]): 90 | Plant response rating, Ragweed (ragweed; [4]): 55 | Plant response rating (scale of 0 to 100 where 0 is no effect and 100 is complete control), Foxtail, Giant (foxtail, giant; [1]): 5 | Foxtail, Giant plant response rating (foxtail, giant; [2]): 10 | Plant response rating, Foxtail, Giant (foxtail, giant; [3]): 55 | Plant response rating, Foxtail, Giant (foxtail, giant; [4]): 35 | Plant response rating (scale of 0 to 100 where 0 is no effect and 100 is complete control), Johnsongrass (johnsongrass; [1]): 5 | Johnsongrass plant response rating (johnsongrass; [2]): 5 | Plant response rating, Johnsongrass (johnsongrass; [3]): 75 | Plant response rating, Johnsongrass (johnsongrass; [4]): 25 | Plant response rating (scale of 0 to 100 where 0 is no effect and 100 is complete control), Morningglory (morningglory; [1]): 30 | Morningglory plant response rating (morningglory; [2]): 75 | Plant response rating, Morningglory (morningglory; [3]): 98 | Plant response rating, Morningglory (morningglory; [4]): 80 | Plant response rating (scale of 0 to 100 where 0 is no effect and 100 is complete control), Blackgrass (blackgrass; [1]): 5 | Blackgrass plant response rating (blackgrass; [2]): 5 | Plant response rating, Blackgrass (blackgrass; [3]): 25 | Plant response rating, Blackgrass (blackgrass; [4]): 10 | Plant response rating (scale of 0 to 100 where 0 is no effect and 100 is complete control), Kochia (kochia; [1]): 70 | Kochia plant response rating (kochia; [2]): 80 | Plant response rating, Kochia (kochia; [3]): 90 | Plant response rating, Kochia (kochia; [4]): 80 | Plant response rating (scale of 0 to 100 where 0 is no effect and 100 is complete control), Oat, Wild (oat, wild; [1]): 10 | Oat, Wild plant response rating (oat, wild; [2]): 10 | Plant response rating, Oat, Wild (oat, wild; [3]): 25 | Plant response rating, Oat, Wild (oat, wild; [4]): 10 | Plant response rating (scale of 0 to 100 where 0 is no effect and 100 is complete control), Nutsedge, Yellow (nutsedge, yellow; [1]): 5 | Nutsedge, Yellow plant response rating (nutsedge, yellow; [2]): 10 | Plant response rating, Nutsedge, Yellow (nutsedge, yellow; [3]): 10 | Plant response rating, Nutsedge, Yellow (nutsedge, yellow; [4]): 20 | Plant response rating (scale of 0 to 100 where 0 is no effect and 100 is complete control), Lambsquarters (lambsquarters; [1]): 25 | Lambsquarters plant response rating (lambsquarters; [2]): 55 | Plant response rating, Lambsquarters (lambsquarters; [3]): 85 | Plant response rating, Lambsquarters (lambsquarters; [4]): 75
